In PMC11945486, “TAS1R2/TAS1R3 Single-Nucleotide Polymorphisms Affect Sweet Taste Receptor Activation by Sweeteners: The SWEET Project” (Nutrients, 2025):
Read-outs that look alike come from different tables or passages of the source. No end group written: not given here.

T1: human TAS1R2-WT/TAS1R3-L823F (Homo sapiens, UniProt Q7RTX0+Q8TE23, L823F)
T1 construct: expressed in transfected cells; host or cells: HEK293T stably expressing Gα16gust44
T1 sequence (Q8TE23 20-839): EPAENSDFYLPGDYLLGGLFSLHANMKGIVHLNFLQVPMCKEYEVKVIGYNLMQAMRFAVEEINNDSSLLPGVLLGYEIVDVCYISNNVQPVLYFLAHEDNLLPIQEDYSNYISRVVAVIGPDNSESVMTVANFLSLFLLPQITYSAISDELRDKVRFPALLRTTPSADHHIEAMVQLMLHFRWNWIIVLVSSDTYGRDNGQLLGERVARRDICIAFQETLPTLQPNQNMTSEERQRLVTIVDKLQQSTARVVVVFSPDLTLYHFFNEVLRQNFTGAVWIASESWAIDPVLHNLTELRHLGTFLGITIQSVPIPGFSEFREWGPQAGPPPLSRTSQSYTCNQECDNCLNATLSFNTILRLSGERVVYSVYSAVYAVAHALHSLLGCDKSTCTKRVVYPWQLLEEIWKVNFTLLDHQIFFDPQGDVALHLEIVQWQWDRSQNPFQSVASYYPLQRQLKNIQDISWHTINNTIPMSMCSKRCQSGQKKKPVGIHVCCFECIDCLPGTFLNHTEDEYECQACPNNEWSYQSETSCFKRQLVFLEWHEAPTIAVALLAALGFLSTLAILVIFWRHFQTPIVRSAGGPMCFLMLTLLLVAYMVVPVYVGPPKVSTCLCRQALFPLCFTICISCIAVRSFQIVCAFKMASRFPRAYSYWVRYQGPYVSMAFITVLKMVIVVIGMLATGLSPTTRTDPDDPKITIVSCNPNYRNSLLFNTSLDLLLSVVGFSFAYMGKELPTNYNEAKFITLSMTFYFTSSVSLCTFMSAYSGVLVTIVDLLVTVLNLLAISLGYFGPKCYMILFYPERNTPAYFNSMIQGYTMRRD
T1 sequence (Q7RTX0 21-852 L823F): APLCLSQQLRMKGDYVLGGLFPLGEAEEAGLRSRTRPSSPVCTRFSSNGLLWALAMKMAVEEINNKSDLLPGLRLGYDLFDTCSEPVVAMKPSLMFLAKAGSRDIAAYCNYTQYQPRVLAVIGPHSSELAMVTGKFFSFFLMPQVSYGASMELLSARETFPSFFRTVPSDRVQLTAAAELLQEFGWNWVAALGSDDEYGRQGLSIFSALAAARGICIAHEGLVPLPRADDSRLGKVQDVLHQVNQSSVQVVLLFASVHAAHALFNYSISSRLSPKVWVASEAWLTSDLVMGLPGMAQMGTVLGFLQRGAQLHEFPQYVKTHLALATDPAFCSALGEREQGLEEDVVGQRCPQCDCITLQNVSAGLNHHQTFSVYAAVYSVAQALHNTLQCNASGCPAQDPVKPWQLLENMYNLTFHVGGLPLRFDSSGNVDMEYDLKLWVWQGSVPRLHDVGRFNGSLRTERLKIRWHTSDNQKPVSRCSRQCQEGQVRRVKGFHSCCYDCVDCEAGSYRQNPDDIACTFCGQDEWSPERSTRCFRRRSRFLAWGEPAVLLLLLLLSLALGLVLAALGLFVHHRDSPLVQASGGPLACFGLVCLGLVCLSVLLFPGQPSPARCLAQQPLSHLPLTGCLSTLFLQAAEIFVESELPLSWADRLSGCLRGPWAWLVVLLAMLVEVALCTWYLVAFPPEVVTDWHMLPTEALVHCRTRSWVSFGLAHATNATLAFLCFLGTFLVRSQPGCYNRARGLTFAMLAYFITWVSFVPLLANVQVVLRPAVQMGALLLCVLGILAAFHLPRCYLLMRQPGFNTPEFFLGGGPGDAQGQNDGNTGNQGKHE

B1: thaumatin (protein)
chain: ATFEIVNRCSYTVWAAASKGDAALDAGGRQLNSGESWTINVEPGTKGGKIWARTDCYFDDSGSGICKTGDCGGLLRCKRFGRPPTTLAEFSLNQYGKDYIDISNIKGFNVPMDFSPTTRGCRGVRCAADIVGQCPAKLKAPGGGCNDACTVFQTSEYCCTTGKCGPTEYSRFFKRLCPDAFSYVLDKPTTVTCPGSSNYRVTFCPTA
modifications: Eight disulfides
notes: sweet-tasting plant protein, E957

Target: T1, human TAS1R2-WT/TAS1R3-L823F
Test: Calcium mobilisation assay, TAS1R2-WT with TAS1R3 variant L823F
Format: cell-based
Conditions: for Max ΔF/F0: maximal signal amplitude
Description: The coding sequences for TAS1R2 and TAS1R3 were commercially synthesised, and the human codon was optimised for expression in human cells. The coding sequences of human TAS1R2 and TAS1R3 were subcloned and inserted into the mammalian expression vectors pcDNA6/myc-HisA and pcDNA4/myc-HisA (Invitrogen; Thermo Fisher Scientific; Illkirch, France) between the EcoRI and NotI restriction sites, generating the plasmids pcDNA6-TAS1R2 and pcDNA4-TAS1R3, respectively. To increase protein expression in mammalian cells, an upstream start codon was used, which was a sequence called MAX, corresponding to the QBI SP163 element also described in pcDNA4-HisMax (Invitrogen; Thermo Fisher Scientific; Illkirch, France). To measure the expression level of the receptor by immunohistochemistry, we used the FLAG sequence ([…]) in the C-terminal position, which encodes the FLAG tag epitope. SNP variants of TAS1R2 and TAS1R3 were constructed based on […], respectively, using site-directed mutagenesis (Genewiz; Leipzig, Germany).
The HEK293T cells were kindly provided by Jay P. Slack (Givaudan Flavors Corporation; Cincinnati, OH, USA). HEK293T cells stably transfected with Gα16gust44 [43, 67] were seeded in poly-D-lysine-coated clear-bottom black 96-well plates (0.35 × 10^5 cells/well) in high-glucose DMEM supplemented with 2 mM GlutaMAX, 10% dialysed foetal bovine serum with penicillin/streptomycin and G418 (400 μg/mL) at 37 °C and 6.3% CO2 in a humidified atmosphere as previously reported. […] As a negative control, HEK293T cells were mock-transfected with the empty expression vector. After a further 24 h of incubation, the HEK293T cells were washed with C1 buffer (130 mM NaCl, 5 mM KCl, 10 mM HEPES pH 7.4 and 2 mM CaCl2). The 96-well plates containing the cells were then stimulated with sweet-tasting compounds. […] Different concentration ranges were tested depending on the sweet compound injected. The Ca^2+ changes were expressed as fractional changes in fluorescent light intensity: ΔF/F = (F − F0)/F0, where F was the fluorescent light intensity at each point, and F0 was the value of emitted fluorescent light prior to stimulus application. To calculate dose–response relationships, the changes in fluorescence upon stimulus application were averaged, mock-subtracted and baseline-corrected. The dose–response data obtained were adjusted using a 4-parameter logistic equation. The half-maximal effective concentrations (EC50 values) and maximal signal amplitudes were calculated using SigmaPlot software (version 15.0) (Systat Software; San Jose, CA, USA).
For in vitro calcium mobilisation assay performed on hTAS1R2-SNPs, hTAS1R3-SNPs and mTAS1R3-I60T, 6 to 7 concentrations were tested for each sweet compound, plus buffer alone. All concentration–receptor combinations were measured in duplicate, and each experiment was repeated at least 4 times (8 wells/concentration). Results were expressed for each concentration as ΔF/F mean ± SEM and represented as dose–response curves.

Molecule	R1 = Variant EC50/WT EC50	Max ΔF/F0	EC50 (read-out: EC50) [µM]	EC50 (brazzein) [µg/mL]
CC1=CC(=O)NS(=O)(=O)O1 [Acesulfame K, acesulfame K]	0.6	0.33 ± 0.01	376 ± 34	–
O=S(=O)(O)NC1CCCCC1 [Cyclamate, cyclamate]	–	–	1370 ± 34	–
C[C@H](CC[C@@H](O[C@@H]1O[C@H](CO[C@@H]2O[C@H](CO)[C@@H](O)[C@H](O)[C@H]2O)[C@@H](O)[C@H](O)[C@H]1O[C@@H]1O[C@H](CO)[C@@H](O)[C@H](O)[C@H]1O)C(C)(C)O)[C@H]1CC[C@@]2(C)[C@@H]3CC=C4[C@@H](CC[C@H](O[C@@H]5O[C@H](CO[C@@H]6O[C@H](CO)[C@@H](O)[C@H](O)[C@H]6O)[C@@H](O)[C@H](O)[C@H]5O)C4(C)C)[C@]3(C)[C@H](O)C[C@]12C [Mogroside V, mogroside V]	0.7	1.18 ± 0.04	22 ± 1.8	–
COc1ccc(CCC(=O)c2c(O)cc(O[C@@H]3O[C@H](CO)[C@@H](O)[C@H](O)[C@H]3O[C@@H]3O[C@@H](C)[C@H](O)[C@@H](O)[C@H]3O)cc2O)cc1O [NHDC, neohesperidin dihydrochalcone]	0.9	1.00 ± 0.01	43.1 ± 14.7	–
COC(=O)[C@H](Cc1ccccc1)NC(=O)[C@H](CC(=O)O)NCCC(C)(C)C [Neotame]	0.9	0.76 ± 0.01	1.1 ± 0.06	–
C=C(C)[C@@H]1CC=C(/C=N/O)CC1 [Perillartine, perillartine]	0.7	1.39 ± 0.15	10 ± 3.1	–
C=C1C[C@@]23CC[C@H]4[C@@](C)(CCC[C@@]4(C)C(=O)O[C@@H]4O[C@H](CO)[C@@H](O)[C@H](O[C@@H]5O[C@H](CO)[C@@H](O)[C@H](O)[C@H]5O)[C@H]4O[C@@H]4O[C@H](CO)[C@@H](O)[C@H](O)[C@H]4O)[C@@H]2CC[C@]1(O[C@@H]1O[C@H](CO)[C@@H](O)[C@H](O[C@@H]2O[C@H](CO)[C@@H](O)[C@H](O)[C@H]2O)[C@H]1O[C@@H]1O[C@H](CO)[C@@H](O)[C@H](O)[C@H]1O)C3 [Rebaudioside M, rebaudioside M]	0.8	1.35 ± 0.09	33.2 ± 5.4	–
OC[C@H]1O[C@H](O[C@]2(CCl)O[C@H](CCl)[C@@H](O)[C@@H]2O)[C@H](O)[C@@H](O)[C@H]1Cl [Sucralose]	1.2	0.84 ± 0.02	134 ± 8	–
brazzein (QDKCKKVYENYPVSKCQLANQCNYDCKLDKHARSGECFYDEKRNLQCICDYCEY; ends and bridges not checked; cysteine pairing not given here; UniProt P56552 1-54, looked up) [sweet-tasting protein obtained by recombinant production using the yeast Pichia pastoris]	0.7	0.98 ± 0.05	–	78.9 ± 14.2
thaumatin	0.7	0.71 ± 0.04	–	–
B1	–	–	7.4 ± 1.1	–
